This is an account of results in ChEMBL document CHEMBL1139194, “Antitumor agents. 256. Conjugation of paclitaxel with other antitumor agents: evaluation of novel conjugates as cytotoxic agents” (Bioorg Med Chem Lett, 2007).

Active and inactive are the calls of the source. The rule behind the calls is not given here. Where only a bound is given, the exact number is not on record here.

Series [1] deals with PC-3. In words: Cytotoxicity against human PC3 cells by sulforhodamine B assay. As to conditions: read-out: ED50 (the source's name). The format is functional.
The test system of series [2] is 1A9. In words: Cytotoxicity against human 1A9 cells by sulforhodamine B assay. It counts as functional. As to conditions: read-out: ED50 (the source's name).
Series [3] is described as follows: Cytotoxicity against human MRC5 cells by sulforhodamine B assay. As to conditions: read-out: ED50 (the source's name). It counts as cell-based.
Series [4] relates to A549. In words: Cytotoxicity against human A549 cells by sulforhodamine B assay. The format is functional. The following applies: read-out: ED50 (the source's name).
Series [5] has as its system LNCaP. Put plainly: Cytotoxicity against human LNCAP cells by sulforhodamine B assay. It counts as functional. The following applies: read-out: ED50 (the source's name).
The test system of series [6] is KB. Put plainly: Cytotoxicity against human KB cells by sulforhodamine B assay. It counts as functional. As to conditions: read-out: ED50 (the source's name).
Series [7] is described as follows: Cytotoxicity against multi drug-resistant human KBVIN cells at 20 ug/mL by sulforhodamine B assay. The format is functional.
Series [8] relates to MCF7. Put plainly: Cytotoxicity against human MCF7 cells by sulforhodamine B assay. It counts as functional. As to conditions: read-out: ED50 (the source's name).
In series [9] the test system is DU-145. Put plainly: Cytotoxicity against human DU145 cells by sulforhodamine B assay. It counts as functional. The following applies: read-out: ED50 (the source's name).
In a further series the test system is KBVIN. In words: (§1) Cytotoxicity against multi drug-resistant human KBVIN cells by sulforhodamine B assay. It counts as functional.
Series [10] concerns MCF7. In words: Cytotoxicity against human MCF7 cells at 20 ug/mL by sulforhodamine B assay. It counts as functional.
Series [11] concerns PC-3. Put plainly: Cytotoxicity against human PC3 cells at 20 ug/mL by sulforhodamine B assay. It counts as functional.
Series [12] has as its system DU-145. In words: Cytotoxicity against human DU145 cells at 20 ug/mL by sulforhodamine B assay. It counts as functional.
Series [13] concerns KB. Put plainly: Cytotoxicity against human KB cells at 20 ug/mL by sulforhodamine B assay. The format is functional.
Series [14] relates to LNCaP. Put plainly: Cytotoxicity against human LNCAP cells at 20 ug/mL by sulforhodamine B assay. It counts as functional.
Series [15] relates to A549. Put plainly: Cytotoxicity against human A549 cells at 20 ug/mL by sulforhodamine B assay. It counts as functional.
For series [16], the system named is 1A9. In words: Cytotoxicity against human 1A9 cells at 20 ug/mL by sulforhodamine B assay. It counts as functional.
A further series has as its system HUVEC. In words: Antiangiogenesis activity against HUVEC cells. The format is functional. The following applies: Homo sapiens, read-out: ED50 (the source's name).
Series [17] is described as follows: Cytotoxicity against human MRC5 cells at 10 ug/mL by sulforhodamine B assay. It counts as cell-based. As to conditions: read-out: Inhibition.
A short description of series [18]: as §1. It counts as functional. As to conditions: read-out: ED50 (the source's name).

Consider `COc1cc([C@@H]2c3cc4c(cc3[C@@H](Nc3ccc(C(=O)NCCC(=O)O[C@H]5C[C@H]6OC[C@@]6(OC(C)=O)[C@H]6[C@H](OC(=O)c7ccccc7)[C@]7(O)C[C@H](OC(=O)[C@H](O)[C@@H](NC(=O)c8ccccc8)c8ccccc8)C(C)=C([C@@H](OC(C)=O)C(=O)[C@]56C)C7(C)C)cc3)[C@H]3COC(=O)[C@H]23)OCO4)cc(OC)c1O`, for which the EC50 in the series with PC-3 [1] was determined as 86.3 nM; in the series with 1A9 [2], 20.7 nM; in the series on A549 [4], 45.6 nM; with LNCaP [5], 22.1 nM; in the series with KB [6] it was 31.6 nM; with MCF7 [8] it was 43.9 nM. The EC50 in the series on DU-145 [9] turned out to be 83.4 nM. For the same compound, the CC50 in series [3] amounted to 3280 nM. In series [7], the inhibition at 20 µg/mL is less than 50%.

As to `COc1cc([C@@H]2c3cc4c(cc3[C@@H](Nc3ccc(C(=O)NCCCC(=O)O[C@H]5C[C@H]6OC[C@@]6(OC(C)=O)[C@H]6[C@H](OC(=O)c7ccccc7)[C@]7(O)C[C@H](OC(=O)[C@H](O)[C@@H](NC(=O)c8ccccc8)c8ccccc8)C(C)=C([C@@H](OC(C)=O)C(=O)[C@]56C)C7(C)C)cc3)[C@H]3COC(=O)[C@H]23)OCO4)cc(OC)c1O`, the EC50 in the series on 1A9 [2] stood at 104 nM; in the series with A549 [4], 1320 nM; with KB [6] it was 347 nM; in the series with MCF7 [8], 125 nM. In the series on KBVIN, the outcome was inactive.

In the case of `CC1(C)[C@@H](O)CC[C@]2(C)[C@H]3C(=O)C=C4[C@@H]5C[C@@](C)(C(=O)O)CC[C@]5(C)CC[C@@]4(C)[C@]3(C)CC[C@@H]12` [ENOXOLONE], the inhibition at 20 µg/mL in the series with MCF7 [10], in the series with PC-3 [11], in the series on DU-145 [12], in the series with KB [13], in the series with LNCaP [14] and in the series on A549 [15] was less than 50% throughout. For the same compound, the inhibition at 20 µg/mL (in the series with 1A9 [16]; in series [7]) was less than 50% in each case.

Take `COc1cc([C@@H]2c3cc4c(cc3[C@@H](Nc3ccc(C(=O)NCCC(=O)O[C@@H](C(=O)O[C@H]5C[C@@]6(O)[C@@H](OC(=O)c7ccccc7)[C@@H]7[C@]8(OC(C)=O)CO[C@@H]8C[C@H](O)[C@@]7(C)C(=O)[C@H](OC(C)=O)C(=C5C)C6(C)C)[C@@H](NC(=O)c5ccccc5)c5ccccc5)cc3)[C@H]3COC(=O)[C@H]23)OCO4)cc(OC)c1O`: the EC50 in the series on PC-3 [1] was determined as 12.1 nM; in the series with 1A9 [2], 2.9 nM; in the series with HUVEC, 4.93 nM; in the series on A549 [4], 10.1 nM; in the series with LNCaP [5], 4.2 nM; with KB [6] it was 8.4 nM. Besides, the values for the EC50 (in the series on MCF7 [8]; in series [18]; with DU-145 [9]) were 6.4 nM, 9960 nM and 8.6 nM, respectively. Further, the cytotoxicity at 10 ug/mL in [17] was less than 50%.
